In patent US7544694B2, “Substituted diaza-spiro-[5.5]-undecane derivatives and their use as neurokinin antagonists” (Janssen Pharmaceutica N.V., priority 2004, dated 2009):

Legend:
Assay type in all cases: cell-based
NK1 = NK1 (Homo sapiens, UniProt P25103); assay: Signal transduction (ST), intracellular Ca++ (FLIPR), functional NK1 antagonistic activity; settings: antagonist, read-out: NK1 pIC50 (converted)
Protocol: (§1) This test evaluates in vitro functional NK1 antagonistic activity. For the measurements of intracellular Ca^++ concentrations the cells were grown on 96-well (black wall/transparent bottom) plates from Costar for 2 days until they reached confluence. The cells were loaded with 2 μM Fluo3 in DMEM containing 0.1% BSA and 2.5 mM probenecid for 1 h at 37° C. They were washed 3× with a Krebs buffer (140 mM NaCl, 1 mM MgCl2×6H2O, 5 mM KCl, 10 mM glucose, 5 mM HEPES; 1.25 mM CaCl2; pH 7.4) containing 2.5 mM probenecid and 0.1% BSA (Ca^++-buffer). The cells were preincubated with a concentration range of antagonists for 20 min at RT and Ca^++-signals after addition of the agonists were measured in a Fluorescence Image Plate Reader (FLIPR from Molecular Devices, Crawley, England). The peak of the Ca^++-transient was considered as the relevant signal and the mean values of corresponding wells were analysed as described below.
(§2) The sigmoidal dose response curves were analysed by computerised curve-fitting, using the GraphPad Program. The EC50-value of a compound is the effective dose showing 50% of maximal effect. For mean curves the response to the agonist with the highest potency was normalised to 100%. For antagonist responses the IC50-value was calculated using non-linear regression.
(§3) The last columns indicate—without being limited thereto—for which action the compounds might be most suitable. Of course, since for some neurokinin receptors no data was determined, it is obvious that these compounds might be attributed to another suitable use.

NK3 = molecular target: T1, NK3 (Homo sapiens, UniProt P29371); assay: Signal transduction (ST), intracellular Ca++ (FLIPR), NK3; settings: antagonist, read-out: NK3 pIC50 (converted)
T1 sequence (P29371 1-465): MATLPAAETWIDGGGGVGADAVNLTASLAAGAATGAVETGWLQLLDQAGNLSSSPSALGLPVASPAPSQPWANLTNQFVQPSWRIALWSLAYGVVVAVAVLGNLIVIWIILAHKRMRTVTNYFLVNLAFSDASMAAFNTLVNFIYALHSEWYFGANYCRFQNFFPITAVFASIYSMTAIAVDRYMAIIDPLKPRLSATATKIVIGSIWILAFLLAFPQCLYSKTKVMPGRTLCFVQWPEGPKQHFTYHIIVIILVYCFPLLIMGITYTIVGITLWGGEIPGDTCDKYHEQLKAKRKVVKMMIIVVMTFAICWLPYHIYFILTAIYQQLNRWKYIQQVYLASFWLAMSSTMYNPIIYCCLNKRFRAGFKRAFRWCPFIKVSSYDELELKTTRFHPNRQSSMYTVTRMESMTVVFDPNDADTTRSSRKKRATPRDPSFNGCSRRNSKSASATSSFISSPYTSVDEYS
Protocol: [The source words this procedure for another target and reports this target under the same test.] as §1, §2, §3

NK2 = molecular target: T2, NK2 (Homo sapiens, UniProt P21452); assay: Signal transduction (ST), intracellular Ca++ (FLIPR), NK2; settings: antagonist, read-out: NK2 pIC50 (converted)
T2 sequence (P21452 1-398): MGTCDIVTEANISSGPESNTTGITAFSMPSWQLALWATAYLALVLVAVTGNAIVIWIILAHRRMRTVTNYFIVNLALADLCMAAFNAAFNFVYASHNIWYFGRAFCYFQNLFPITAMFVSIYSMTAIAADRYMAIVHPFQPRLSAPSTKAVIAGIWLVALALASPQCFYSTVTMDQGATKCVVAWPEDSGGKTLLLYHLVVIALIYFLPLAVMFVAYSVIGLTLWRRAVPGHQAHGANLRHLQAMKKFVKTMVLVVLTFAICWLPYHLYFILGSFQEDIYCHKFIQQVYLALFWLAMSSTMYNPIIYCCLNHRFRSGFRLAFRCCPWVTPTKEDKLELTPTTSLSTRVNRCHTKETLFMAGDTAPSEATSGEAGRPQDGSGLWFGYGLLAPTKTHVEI
Protocol: [The source words this procedure for another target and reports this target under the same test.] as §1, §2, §3

NK1, sequence (P25103 whole entry): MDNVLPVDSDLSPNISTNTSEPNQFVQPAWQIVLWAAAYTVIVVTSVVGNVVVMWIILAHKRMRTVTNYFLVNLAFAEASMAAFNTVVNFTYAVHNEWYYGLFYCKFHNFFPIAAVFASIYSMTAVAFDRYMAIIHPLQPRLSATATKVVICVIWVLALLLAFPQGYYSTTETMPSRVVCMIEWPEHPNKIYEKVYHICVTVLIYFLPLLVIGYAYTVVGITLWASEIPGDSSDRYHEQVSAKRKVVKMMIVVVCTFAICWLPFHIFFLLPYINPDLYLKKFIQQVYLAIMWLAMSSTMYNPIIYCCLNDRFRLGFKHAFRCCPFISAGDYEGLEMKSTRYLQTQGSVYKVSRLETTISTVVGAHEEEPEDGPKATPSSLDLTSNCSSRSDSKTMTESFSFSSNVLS

IC50 (NK1)	IC50 (NK3)	IC50 (NK2)	Structure (SMILES)
562 nM	> 10000 nM	5370 nM	O=C(c1cc(C(F)(F)F)cc(C(F)(F)F)c1)N1CC[C@H](N2CCC3(CC2)CCN(S(=O)(=O)C=Cc2ccccc2)CC3)C[C@H]1Cc1ccccc1 [Compound 128]
16.6 nM	2140 nM	2340 nM	O=C(C1CCOC1)N1CCC2(CC1)CCN([C@H]1CCN(C(=O)c3cc(C(F)(F)F)cc(C(F)(F)F)c3)[C@H](Cc3ccccc3)C1)CC2 (stereo partly shown) [Compound 21]
977 nM	> 10000 nM	> 10000 nM	O=C(c1cc(C(F)(F)F)cc(C(F)(F)F)c1)N1CC[C@H](N2CCC3(CC2)CCN(S(=O)(=O)c2cc(Br)c(Br)s2)CC3)C[C@H]1Cc1ccccc1 [Compound 98]
282 nM	> 10000 nM	7240 nM	O=C(C=Cc1ccco1)N1CCC2(CC1)CCN([C@H]1CCN(C(=O)c3cc(C(F)(F)F)cc(C(F)(F)F)c3)[C@H](Cc3ccccc3)C1)CC2 [Compound 84]
79.4 nM	> 10000 nM	5370 nM	O=C(C1=COCCC1)N1CCC2(CC1)CCN([C@H]1CCN(C(=O)c3cc(C(F)(F)F)cc(C(F)(F)F)c3)[C@H](Cc3ccccc3)C1)CC2 [Compound 45]
17 nM	5370 nM	5010 nM	O=C(C1CC1)N1CCC2(CC1)CCN(C(=O)[C@H]1CCN(C(=O)c3cc(C(F)(F)F)cc(C(F)(F)F)c3)[C@H](Cc3ccccc3)C1)CC2 [Compound 186]
363 nM	> 10000 nM	> 10000 nM	O=C(c1cc(C(F)(F)F)cc(C(F)(F)F)c1)N1CC[C@H](N2CCC3(CC2)CCN(S(=O)(=O)c2cc(Cl)cc(Cl)c2)CC3)C[C@H]1Cc1ccccc1 [Compound 114]
282 nM	~10000 nM	4570 nM	O=C(C1CCOC1)N1CCCC2(CCCN(C3CCN(C(=O)c4cc(C(F)(F)F)cc(C(F)(F)F)c4)C(Cc4ccccc4)C3)C2)C1 (single isomer, unassigned) [Compound 211]
6.17 nM	3550 nM	1620 nM	Cc1nnsc1C(=O)N1CCC2(CC1)CCN(C(=O)[C@H]1CCN(C(=O)c3cc(C(F)(F)F)cc(C(F)(F)F)c3)[C@H](Cc3ccccc3)C1)CC2 [Compound 190]
105 nM	–	5370 nM	CC1(C(=O)N2CCC3(CC2)CCN([C@H]2CCN(C(=O)c4cc(C(F)(F)F)cc(C(F)(F)F)c4)[C@H](Cc4ccccc4)C2)CC3)CC1 [Compound 11]
129 nM	> 10000 nM	7760 nM	O=C(c1cc(C(F)(F)F)cc(C(F)(F)F)c1)N1CCC(N2CCC3(CC2)CCN(C(CO)c2cccs2)CC3)CC1Cc1ccccc1 (stereo not shown) [Compound 6]
28.2 nM	> 10000 nM	4270 nM	Cc1nnsc1C(=O)N1CCC2(CC1)CCN([C@H]1CCN(C(=O)c3cc(C(F)(F)F)cc(C(F)(F)F)c3)[C@H](Cc3ccccc3)C1)CC2 [Compound 36]
19.1 nM	> 10000 nM	> 10000 nM	Cc1noc(C)c1C(=O)N1CCC2(CC1)CCN([C@H]1CCN(C(=O)c3cc(C(F)(F)F)cc(C(F)(F)F)c3)[C@H](Cc3ccccc3)C1)CC2 [Compound 35]
107 nM	> 10000 nM	3980 nM	O=C(c1ccccn1)N1CCC2(CC1)CCN([C@H]1CCN(C(=O)c3cc(C(F)(F)F)cc(C(F)(F)F)c3)[C@H](Cc3ccccc3)C1)CC2 [Compound 49]
64.6 nM	1950 nM	~4570 nM	Cc1cccc(S(=O)(=O)N2CCC3(CCN([C@H]4CCN(C(=O)c5cc(C(F)(F)F)cc(C(F)(F)F)c5)[C@H](Cc5ccccc5)C4)CC3)CC2)c1 [Compound 104]
36.3 nM	8910 nM	2570 nM	COc1cccc(CCC(=O)N2CCC3(CC2)CCN([C@H]2CCN(C(=O)c4cc(C(F)(F)F)cc(C(F)(F)F)c4)[C@H](Cc4ccccc4)C2)CC3)c1 [Compound 83]

IC50 (NK1)	IC50 (NK3)	IC50 (NK2)	Structure (SMILES)
81.3 nM	> 10000 nM	5500 nM	O=C(C1CCN(C(=O)c2cc(C(F)(F)F)cc(C(F)(F)F)c2)C(Cc2ccccc2)C1)N1CCC2(CCN(Cc3ccccc3)CC2)CC1 (stereo not shown) [Compound 185]
52.5 nM	708 nM	> 10000 nM	O=C(c1cc(C(F)(F)F)cc(C(F)(F)F)c1)N1CC[C@H](N2CCC3(CC2)CCN(S(=O)(=O)c2ccc(F)cc2)CC3)C[C@H]1Cc1ccccc1 [Compound 116]
15.1 nM	3720 nM	5500 nM	CC(C)(C)OC(=O)N1CCCC1C(=O)N1CCC2(CC1)CCN(C(=O)[C@H]1CCN(C(=O)c3cc(C(F)(F)F)cc(C(F)(F)F)c3)[C@H](Cc3ccccc3)C1)CC2 (stereo partly shown) [Compound 188]
204 nM	5370 nM	~229 nM	O=C(c1cc(C(F)(F)F)cc(C(F)(F)F)c1)N1CC[C@H](N2CCC3(CC2)CCN(S(=O)(=O)c2c(Cl)cccc2Cl)CC3)C[C@H]1Cc1ccccc1 [Compound 111]
309 nM	> 10000 nM	> 10000 nM	O=C(C=Cc1ccoc1)N1CCC2(CC1)CCN([C@H]1CCN(C(=O)c3cc(C(F)(F)F)cc(C(F)(F)F)c3)[C@H](Cc3ccccc3)C1)CC2 [Compound 85]
53.7 nM	4900 nM	3720 nM	O=C(c1ccsc1)N1CCC2(CC1)CCN([C@H]1CCN(C(=O)c3cc(C(F)(F)F)cc(C(F)(F)F)c3)[C@H](Cc3ccc(Cl)c(Cl)c3)C1)CC2 [Compound 133]
29.5 nM	> 10000 nM	3630 nM	O=C(c1ccncc1)N1CCC2(CC1)CCN([C@H]1CCN(C(=O)c3cc(C(F)(F)F)cc(C(F)(F)F)c3)[C@H](Cc3ccccc3)C1)CC2 [Compound 51]
200 nM	> 10000 nM	> 10000 nM	Cn1cccc1C(=O)N1CCC2(CC1)CCN([C@H]1CCN(C(=O)c3cc(C(F)(F)F)cc(C(F)(F)F)c3)[C@H](Cc3ccccc3)C1)CC2 [Compound 33]
158 nM	–	6460 nM	O=C(C1CC1)N1CCC2(CC1)CCN(C1CCN(C(=O)c3cc(Cl)cc(Cl)c3)C(Cc3ccccc3)C1)CC2 (stereo not shown) [Compound 155]
263 nM	> 10000 nM	> 10000 nM	CC12CCC(C(=O)N3CCC4(CC3)CCN([C@H]3CCN(C(=O)c5cc(C(F)(F)F)cc(C(F)(F)F)c5)[C@H](Cc5ccccc5)C3)CC4)(OC1=O)C2(C)C (stereo partly shown) [Compound 61]
145 nM	–	> 10000 nM	Cc1cc(C)cc(C(=O)N2CCC(N3CCC4(CCN(C(=O)C5CC5)CC4)CC3)CC2Cc2ccccc2)c1 (stereo not shown) [Compound 153]
30.9 nM	1510 nM	–	N#Cc1ccccc1S(=O)(=O)N1CCC2(CCN([C@H]3CCN(C(=O)c4cc(C(F)(F)F)cc(C(F)(F)F)c4)[C@H](Cc4ccccc4)C3)CC2)CC1 [Compound 118]
174 nM	5130 nM	–	O=C(c1cc(C(F)(F)F)cc(C(F)(F)F)c1)N1CC[C@H](N2CCC3(CC2)CCN(S(=O)(=O)c2cc(Cl)ccc2Cl)CC3)C[C@H]1Cc1ccccc1 [Compound 110]
60.3 nM	525 nM	–	O=C(c1cc(C(F)(F)F)cc(C(F)(F)F)c1)N1CC[C@H](N2CCC3(CC2)CCN(S(=O)(=O)c2ccccc2Cl)CC3)C[C@H]1Cc1ccccc1 [Compound 106]
87.1 nM	~10000 nM	–	O=C(c1cc(C(F)(F)F)cc(C(F)(F)F)c1)N1CC[C@H](N2CCC3(CC2)CCN(S(=O)(=O)c2cc(Cl)sc2Cl)CC3)C[C@H]1Cc1ccccc1 [Compound 97]
31.6 nM	–	> 10000 nM	NC(=O)C1(C(=O)N2CCC3(CC2)CCN([C@H]2CCN(C(=O)c4cc(C(F)(F)F)cc(C(F)(F)F)c4)[C@H](Cc4ccccc4)C2)CC3)CC1 [Compound 14]
